65 compounds from US12612413B2, “Heteroaryl compounds as inhibitors of programmed necrosis pathway, composition and method using the same” (ACCRO BIOSCIENCE INC., priority 2020, dated 2026) can be followed below.

The first experiment concerns HT-29 cells. Description: HT-29 cell viability (necroptosis) assay. Format: cell-based. The note with it: Homo sapiens, TNF-α (40 ng/mL), Smac mimetic (100 nM), z-VAD (20 μM), 40 h, from survival rate curve. On the procedure: Human colon cancer HT-29 cells were used in a necroptosis assay. For this assay, HT-29 cells were added to 96-well plates. The compounds at different concentrations (0.3, 1.0, 3.0, 10.0, 20.0 μM) were then preprocessed for two hours. TNF-α (40 ng/mL), Smac mimetic (100 nM) and z-VAD (20 μM) were added, and the mixture was incubated for 40 h. Quantitative analysis of cell viability was conducted. DMSO pretreatment group was used as a negative control. Concentration for 50% of maximal effect was calculated according to the curve of the survival rate measured at different concentrations. FIG. 1 depicts the EC50 curves of compound A16.
For `CC1=Cc2cc3nccc(Nc4ccc(O)c(C#N)c4)c3cc2S1(=O)=O` [Compound A58], a half-maximal response (EC50) required 3950 nM. This counts as single-digit micromolar.

In the case of `Cc1[nH]nc(Nc2ccnc3cc4c(cc23)S(=O)(=O)C=C4C2CC2)c1C` [Compound A96], the EC50 (in general, the concentration needed to bring the measured effect to its halfway point) was 590 nM.

In turn, `O=S1(=O)C=Cc2cc3nccc(Nc4ccc5scnc5c4)c3cc21` [Compound A2] showed an EC50 of 1020 nM. This EC50 is about 1.7-fold higher than that of the compound before.

`CN1CCC(OC2=CS(=O)(=O)c3cc4c(Nc5ccc6scnc6c5)ccnc4cc32)C1` (centres unmarked) [Compound A114] gave an EC50 of 310 nM. This EC50 is about 3.3-fold lower than that of the compound before.

With `O=S1(=O)C=C(O[C@@H]2CCOC2)c2cc3nccc(Nc4ccc5scnc5c4)c3cc21` [Compound A116], the EC50 was determined as 260 nM.

Take `N#Cc1ccc(C2=CS(=O)(=O)c3cc4c(Nc5ccc6scnc6c5)ccnc4cc32)cc1` [Compound A25]: the response was half-maximal at 300 nM (EC50). The EC50 values of the last two compounds are within 1.5-fold of each other.

The compound `O=S1(=O)C=C(c2ccncc2)c2cc3nccc(Nc4ccc5scnc5c4)c3cc21` [Compound A28] returned an EC50 of 1010 nM.

Regarding `CC1=Cc2cc3nccc(Nc4ccn5ccnc5c4)c3cc2S1(=O)=O` [Compound A67, 8-(imidazo[1,2-a]pyridin-7-ylamino)-2-methylthieno[2,3-g]quinoline 1,1-dioxide], a half-maximal effect (EC50) was put at 5710 nM. This EC50 lies about 5.7-fold higher than the previous one.

`Cn1cc(C2=CS(=O)(=O)c3cc4c(Nc5ccc6scnc6c5)ccnc4cc32)cn1` [Compound A31] had an EC50 of 1030 nM.

With `O=S1(=O)C(C2CC2)=Cc2cc3nccc(Nc4ccc5scnc5c4)c3cc21` [Compound A6], a half-maximal response (EC50) required 540 nM.

For `CC1=C(C)S(=O)(=O)c2cc3c(Nc4ccc5scnc5c4)ccnc3cc21` [Compound A8], the EC50 was 530 nM. This EC50 and that of the compound before are within 1.5-fold of each other.

`CC1(C)C(=O)c2cc3nccc(Nc4cc(O)c(Cl)cc4F)c3cc2S1(=O)=O` [Compound B16] yielded an EC50 of 1260 nM. Compared with the last compound, the EC50 is about 2.4-fold higher.

Regarding `CC1=CS(=O)(=O)c2cc3c(Nc4cc(O)c(F)cc4F)ccnc3cc21` [Compound A83], a half-maximal effect (EC50) was put at 1000 nM.

In turn, `COC1=CS(=O)(=O)c2cc3c(Nc4ccc5scnc5c4)ccnc3cc21` [Compound A12, 8-(benzo[d]thiazol-5-ylamino)-3-methoxythieno[2,3-g]quinoline 1,1-dioxide] gave an EC50 of 1030 nM.

For the compound `COc1c2c(cc3c(Nc4ccc5scnc5c4)ccnc13)S(=O)(=O)C=C2` [Compound A108], the EC50 is 630 nM. Against the preceding compound, the EC50 is about 1.6-fold lower.

`Cc1cc(C2=CS(=O)(=O)c3cc4c(Nc5ccc6scnc6c5)ccnc4cc32)n(C)n1` [Compound A32] showed an EC50 of 1200 nM.

Compound `O=S1(=O)C=C(C2CC2)c2cc3nccc(Nc4cncc(O)c4)c3cc21` [Compound A102] gave an EC50 of 9000 nM.

`O=S1(=O)C=C(C2CC2)c2cc3nccc(Nc4ccc5cn[nH]c5c4)c3cc21` [Compound A91] returned an EC50 of 160 nM.

For `CC(C)OC1=Cc2cc3nccc(Nc4ccc5scnc5c4)c3cc2S1(=O)=O` [Compound A15], the response was half-maximal at 500 nM (EC50). This EC50 is about 3.1-fold higher than that of the compound before.

`NCCOC1=CS(=O)(=O)c2cc3c(Nc4ccc5scnc5c4)ccnc3cc21` [Compound A110] showed an EC50 of 2080 nM.

Turning to `O=S1(=O)C=C(NCCO)c2cc3nccc(Nc4ccc5scnc5c4)c3cc21` [Compound A18], a half-maximal effect (EC50) was put at 310 nM.

With `O=S1(=O)C=C(C2CC2)c2cc3nccc(Nc4ccc5nn[nH]c5c4)c3cc21` [Compound A92], a half-maximal effect (EC50) was put at 420 nM. This EC50 and that of the compound before are within 1.5-fold of each other.

With `O=S1(=O)C=C(C2CC2)c2cc3nccc(Nc4ccn5ccnc5c4)c3cc21` [Compound A104], it took 12000 nM to reach a half-maximal effect (EC50).

Still in this experiment, the particulars now being: Homo sapiens, compound at 20 μM, TNF-α (40 ng/mL), Smac mimetic (100 nM), z-VAD (20 μM), 40 h, read-out: HT-29(20 μM) Survival.
On to `Nc1cncc(Nc2ccnc3cc4c(cc23)S(=O)(=O)C=C4C2CC2)c1` [Compound A103], for which the viability at 20 µM is 46.1%.

As to `N#Cc1cc(Nc2ccnc3cc4c(cc23)S(=O)(=O)C=C4C2CC2)ccc1O` [Compound A98], the viability at 20 µM was 14.8%.

For `O=S1(=O)CC(c2ccccc2)c2cc3nccc(Nc4ccc5scnc5c4)c3cc21` (centres unmarked) [Compound B23], the viability at 20 µM is 12.7%.

As to `CC1=Cc2cc3nccc(Nc4ccc5c(c4)CNCC5)c3cc2S1(=O)=O` [Compound A41], the viability at 20 µM is 9.8%.

For the compound `CC1=CS(=O)(=O)c2cc3c(Nc4ccc(O)cc4C)ccnc3cc21` [Compound A80], the viability at 20 µM was found to be 14.4%.

Take `CC1=Cc2cc3nccc(Nc4cnc5snc(C)c5c4)c3cc2S1(=O)=O` [Compound A44]: the viability at 20 µM stood at 20.1%.

As for `CC1=Cc2cc3nccc(Nc4cc(O)ccc4C)c3cc2S1(=O)=O` [Compound A46], the viability at 20 µM came to 13.1%.

In the case of `CC1=CS(=O)(=O)c2cc3c(Nc4n[nH]c(C)c4C)ccnc3cc21` [Compound A75], the viability at 20 µM amounted to 32.3%.

As to `CC1=C(C)S(=O)(=O)c2cc3c(Nc4cc(O)ccc4C)ccnc3cc21` [Compound A88], the viability at 20 µM stood at 41.3%.

Take `Nc1cc(C2=CS(=O)(=O)c3cc4c(Nc5ccc6scnc6c5)ccnc4cc32)ccn1` [Compound A29]: the viability at 20 µM was 1.1%.

For `CC1(C)C(=O)c2c(cc3c(Nc4ccc5scnc5c4)ccnc3c2C2CC2)S1(=O)=O` [Compound B12, 8-(benzo[d]thiazol-5-ylamino)-4-cyclopropyl-2,2-dimethylthieno[2,3-g]quinolin-3(2H)-one 1,1-dioxide], the viability at 20 µM amounted to 10.3%.

As to `CC1=Cc2cc3nccc(Nc4ccc(O)c(F)c4)c3cc2S1(=O)=O` [Compound A54], the viability at 20 µM is 31.9%.

Consider `CC1(C)C(=O)c2cc3nccc(Nc4n[nH]c5ccc(F)cc45)c3cc2S1(=O)=O` [Compound B19], for which the viability at 20 µM was 7.2%.

`COc1ccc(C2CS(=O)(=O)c3cc4c(Nc5ccc6scnc6c5)ccnc4cc32)cc1` (centres unmarked) [Compound B24]: the viability at 20 µM was 16.5%.

As to `CC(=O)Nc1ccc(C)c(Nc2ccnc3cc4c(cc23)S(=O)(=O)C(C)=C4)c1` [Compound A48], the viability at 20 µM amounted to 7.8%.

On to `O=C1c2c(cc3c(Nc4ccc5scnc5c4)ccnc3c2Cl)S(=O)(=O)C12CC=CC2` [Compound B21], for which the viability at 20 µM came to 4.9%.

With `CC1=Cc2cc3nccc(Nc4cc(F)cc(F)n4)c3cc2S1(=O)=O` [Compound A70], the viability at 20 µM came out at 16.5%.

Take `CC1=CS(=O)(=O)c2cc3c(Nc4ccc(O)cc4F)ccnc3cc21` [Compound A81]: the viability at 20 µM is 28.8%.

As for `N#Cc1cc(O)cc(Nc2ccnc3cc4c(cc23)S(=O)(=O)C=C4C2CC2)c1` [Compound A99], the viability at 20 µM came to 72.7%.

Turning to `CC1=Cc2cc3nccc(Nc4ccnc(N)c4)c3cc2S1(=O)=O` [Compound A65, 8-((2-aminopyridin-4-yl)amino)-2-methylthieno[2,3-g]quinoline 1,1-dioxide], the viability at 20 µM came out at 19.5%.

In the case of `CC1=Cc2cc3nccc(Nc4ccc(O)c(Cl)c4)c3cc2S1(=O)=O` [Compound A55], the viability at 20 µM amounted to 25.6%.

On to `COc1ccc(C)c(Nc2ccnc3cc4c(cc23)S(=O)(=O)C(C)=C4)c1` [Compound A47], for which the viability at 20 µM was found to be 17.5%.

Take `O=S1(=O)c2cc3c(Nc4ccc5scnc5c4)ccnc3cc2OCC12CC2` [Compound B25]: the viability at 20 µM amounted to 70.7%.

For the compound `CC1=Cc2cc3nccc(Nc4ccc5ncnn5c4)c3cc2S1(=O)=O` [Compound A68], the viability at 20 µM turned out to be 11.9%.

As to `CC1=Cc2cc3nccc(Nc4cc(N)ncc4C)c3cc2S1(=O)=O` [Compound A63], the viability at 20 µM was 48.8%.

With `N#Cc1cccc(Nc2ccnc3cc4c(cc23)S(=O)(=O)C=C4C2CC2)c1` [Compound A97], the viability at 20 µM was determined as 22.5%.

On to `CC1=Cc2cc3nccc(Nc4cc(O)cc(C#N)c4)c3cc2S1(=O)=O` [Compound A61], for which the viability at 20 µM was determined as 29.2%.

Turning to `CN(C)CCOC1=CS(=O)(=O)c2cc3c(Nc4ccc5scnc5c4)ccnc3cc21` [Compound A112], the viability at 20 µM was 37.2%.

Regarding `CC1=CS(=O)(=O)c2cc3c(Nc4cc(O)ccc4F)ccnc3cc21` [Compound A79], the viability at 20 µM worked out at 39.4%.

As for `O=S1(=O)C=C(C2CC2)c2cc3nccc(Nc4n[nH]c5ccc(F)cc45)c3cc21` [Compound A90], the viability at 20 µM worked out at 36%.

Turning to `O=C1c2cc3nccc(Nc4ccc5scnc5c4)c3cc2S(=O)(=O)C12CC=CC2` [Compound B22], the viability at 20 µM came out at 23.5%.

As to `CC1=Cc2cc3nccc(Nc4n[nH]c(C)c4C)c3cc2S1(=O)=O` [Compound A38], the viability at 20 µM came to 37.6%.

As to `CC1=CS(=O)(=O)c2cc3c(Nc4n[nH]c5ccc(F)cc45)ccnc3cc21` [Compound A73], the viability at 20 µM is 40.7%.

Turning to `O=S1(=O)C=C(C2CC2)c2cc3nccc(Nc4ccc5nc[nH]c5c4)c3cc21` [Compound A94], the viability at 20 µM stood at 28.9%.

On to `CC1=Cc2cc3nccc(Nc4cc(N)cc(F)n4)c3cc2S1(=O)=O` [Compound A71, 8-((4-amino-6-fluoropyridin-2-yl)amino)-2-methylthieno[2,3-g]quinoline 1,1-dioxide], for which the viability at 20 µM worked out at 23.4%.

As to `C#Cc1cc(O)cc(Nc2ccnc3cc4c(cc23)S(=O)(=O)C(C)=C4)c1` [Compound A62], the viability at 20 µM turned out to be 22.3%.

As for `CC1=C(C)S(=O)(=O)c2cc3c(Nc4n[nH]c5ccc(F)cc45)ccnc3cc21` [Compound A84], the viability at 20 µM came out at 18.1%.

Consider `O=S1(=O)C=C(n2ccnc2)c2cc3nccc(Nc4ccc5scnc5c4)c3cc21` [Compound A34], for which the viability at 20 µM was found to be 15.5%.

Turning to `CC1c2cc3nccc(Nc4ccc5scnc5c4)c3cc2S(=O)(=O)C1(C)CC1CC1` (centres unmarked) [Compound B7], the viability at 20 µM amounted to 19.1%.

For the compound `O=S1(=O)c2cc3c(Nc4ccc5scnc5c4)ccnc3cc2OCC12CCC2` [Compound B26], the viability at 20 µM is 72.6%.

For the compound `CC1=Cc2cc3nccc(Nc4cc(N)ccc4C)c3cc2S1(=O)=O` [Compound A49], the viability at 20 µM turned out to be 60.3%.

`CC1=C(C)S(=O)(=O)c2cc3c(Nc4cc(N)ccc4C)ccnc3cc21` [Compound A87]: the viability at 20 µM was determined as 15.5%.
